US10981911B2, “Imidazopyrrolopyridine as inhibitors of the JAK family of kinases” (Janssen Pharmaceutica NV, priority 2016, dated 2021)
Like-named read-outs stand apart in the source and are kept apart here.

Legend:
[1] = Solubility assays in simulated gastric and simulated intestinal fluids; assay type: physicochemical; settings: thermodynamic from solid, 2-5 days
Description: Test compounds were dissolved in DMSO at a concentration of 10 mM. The test compounds were dispensed (20 μL) into Nunc 1-mL-96-Deep-Well-PP plates, and the DMSO was evaporated via nitrogen blow down from a TurboVap 96 for 6 hours or until a dry residue was produced. Then, 400 μL of solubility media was added to the well containing the dry solid. […] After the incubation period, the samples were filtered through an AcroPrep 1-mL-96-Filter plate into a new 2-mL-96-Deep-Well-PP plate, and the supernatants were quantified by UV-HPLC using a 3-point calibration ranging from 0.004-0.55 mM. The solubility for each compound was calculated from the following equation: […] Solubilities are reported as long as the compound under study was sufficiently stable to complete the corresponding solubility determination.

[2] = In vivo p.o. dosing: plasma and colon tissue concentrations (Protocols 1 and 2); parameters: species or system female C57BL/6 mice; settings: female, C57BL/6, mouse, po, mice, 25 mg/kg p.o.
Description: These protocols are described below under the heading In vivo Studies. Three non-fasted female C57BL/6 mice were orally administered test compound at a dose of 25 mg/kg p.o. as a solution in 20% hydroxypropyl-beta-cyclodextrin (HPβCD) at a dose volume of 5 mL/kg. Blood samples were collected at 0.5, 2, and 4 h post dose via retro-orbital bleed or venipuncture of the dorsal metatarsal vein. Blood samples were collected into tubes containing anticoagulant (Heparin-Na) and placed on wet ice. The plasma fraction was separated by centrifugation and frozen at −20° C. for up to 4 h and −80° C. after 4 h unless analyzed shortly after sample collection. Colon samples were collected at 4 h post dose. […] The colon was further washed by putting it in 5 mL of saline and shaken for 5 seconds. The colon sample was then patted dry, weighed, and homogenized as 1 part tissue (g) to 4 parts HPLC grade water (mL). Concentrations of the compound in plasma and colon homogenate were determined using a qualified liquid chromatography-triple quadrupole mass spectrometry (LC-MS/MS) method. […] Three non-fasted female C57BL/6 mice were orally administered test compound at a dose of 25 mg/kg p.o. as a solution in 20% HPβCD at a dose volume of 5 mL/kg. Blood samples were collected at 0.5, 2, and 4 h post dose via retro-orbital bleed or dorsal metatarsal vein. Blood samples were collected into tubes containing anticoagulant (Heparin-Na) and placed on wet ice. The plasma fraction was separated by centrifugation and frozen at −20° C. for up to 4 h and −80° C. after 4 h unless analyzed shortly after sample collection. Colon samples were collected at 4 h post dose. From 2 cm below the cecum, a 4 cm sample of the colon was dissected, cut open on the longitudinal axis, and the solid contents removed by flushing with 2 mL of saline. The colon was further washed by putting it in 5 mL of saline and shaken for 5 seconds. The colon sample was then patted dry, weighed, and homogenized as 1 part tissue (g) to 4 parts HPLC grade water (mL). Concentrations of the compound in plasma and colon homogenate were determined using a qualified liquid chromatography-triple quadrupole mass spectrometry (LC-MS/MS) method.

P-gp (MDR1) = assay: MDCK-MDR1 permeability assay; assay type: in vitro ADME; settings: dog, MDCK-MDR1, pH 7.4, @ 5 μM
Description: Permeability measurements were conducted according to the Cyprotex protocol using the MDCK-MDR1 cell line obtained from the NIH (Rockville, Md., USA). Cells between passage numbers 6-30 were seeded onto a Multiscreen Plate™ (Millipore) at a cell density of 3.4×10^5 cells/cm^2 and cultured for three days before permeability studies were conducted. The cells in this assay form a cohesive sheet of a single cell layer filing the surface area of the culture dish, also known as a confluent monolayer, and on day four the test compound was added to the apical side of the membrane and the transport of the compound across the monolayer was monitored over a time period of 60 min.
Test compounds were dissolved in DMSO at a concentration of 10 mM. The dosing solutions were prepared by diluting test compound with assay buffer (Hanks Balanced Salt Solution), pH 7.4, at a final concentration of 5 μM. For assessment of apical to basolateral (“A-B”) permeability, buffer was removed from the apical compartment and replaced with test compound dosing solution with or without the permeability glycoprotein (“PgP”, “P-gP”, “Pgp” or “P-gp”) inhibitor elacridar (2 μM). For assessment of basolateral to apical (“B-A”) permeability, buffer was removed from the companion plate and replaced with test compound dosing solution. Incubations were carried out in duplicate at 37° C. in an atmosphere of 5% CO2 with a relative humidity of 95%. Each assay included the reference markers propranolol (high permeability) and prazosin (PgP substrate). After incubation for 60 minutes, apical and basolateral samples were diluted and test compounds quantified by LC/MS/MS using an 8-point calibration in the range 0.0039 to 3 μM with appropriate dilution of the samples (receiver dilution factor=1; donor and C0 dilution factor=10). The permeability coefficient (Papp) for each compound was calculated from the following equation: Papp=(dQ/dt)/(C0×S), where dQ/dt is the rate of permeation of the drug across the cells, C0 is the donor compartment concentration at time zero, and S is the area of the cell monolayer.
The second and third columns in Table 7 show the values of Papp(A-B) for the apical-to-basolateral compound transport without (second column) and with a P-gp inhibitor (third column, noted as P^eapp(A-B)) that was elacridar. Papp(A-B) gives an indication of permeation extent across the cells in this assay, which is envisaged to model the transcellular transport across Pgp-expressing cells, such as Pgp-expressing gastrointestinal tract cells. P^eapp(A-B) values (Papp(A-B) in the presence of the P-gp inhibitor) given in column 3 are determined to confirm the role of P-gp in the compound efflux. […] Test compound efflux ratios are given in the fifth column of Table 7 as Papp(B-A)/Papp(A-B) by using the corresponding permeability coefficient values from the fourth and second columns in the same table.

JAK3-JH1JH2 = JAK3-JH1JH2 (Homo sapiens (Human), UniProt P52333); assay: Enzymatic inhibition assay (RapidFire HTMS), JAK3; assay type: biochemical; settings: 150 μM ATP, 40 μM substrate
Sequence of JAK3-JH1JH2 (P52333 512-1124): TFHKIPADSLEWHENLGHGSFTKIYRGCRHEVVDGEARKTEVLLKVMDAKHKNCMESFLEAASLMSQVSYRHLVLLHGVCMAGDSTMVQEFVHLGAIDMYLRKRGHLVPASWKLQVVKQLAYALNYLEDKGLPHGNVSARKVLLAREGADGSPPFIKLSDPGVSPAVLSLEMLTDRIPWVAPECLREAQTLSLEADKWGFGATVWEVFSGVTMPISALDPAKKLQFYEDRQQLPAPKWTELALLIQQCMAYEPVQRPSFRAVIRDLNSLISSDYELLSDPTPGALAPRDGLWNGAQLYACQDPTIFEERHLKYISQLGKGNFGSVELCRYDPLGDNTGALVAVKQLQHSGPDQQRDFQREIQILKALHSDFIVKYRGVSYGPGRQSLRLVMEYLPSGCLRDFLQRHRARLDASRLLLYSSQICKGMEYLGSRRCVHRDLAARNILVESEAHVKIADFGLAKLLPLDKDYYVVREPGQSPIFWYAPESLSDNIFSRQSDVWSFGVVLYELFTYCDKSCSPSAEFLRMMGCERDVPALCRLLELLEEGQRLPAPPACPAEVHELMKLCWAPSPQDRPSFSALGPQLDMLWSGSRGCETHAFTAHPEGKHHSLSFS
Summary of the method: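 JAK3 JH1JH2 reaction incubated 45 min at 25 °C, then quenched with 0.5% TFA containing 0.15 μM internal standard peptide. Phosphopeptide product measured by RapidFire C4 SPE–ESI MS (positive mode); inhibition from product decrease versus uninhibited enzyme, 11-point 1:3 or 1:4 dilutions in duplicate.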

Tyk2-JH1JH2 = Tyk2-JH1JH2 (Homo sapiens (Human), UniProt P29597, C1142A/C936A); assay: Enzymatic inhibition assay (RapidFire HTMS), Tyk2; assay type: biochemical; settings: 50 μM ATP, 200 μM substrate
Sequence of Tyk2-JH1JH2 (P29597 580-1182 C936A/C1142A): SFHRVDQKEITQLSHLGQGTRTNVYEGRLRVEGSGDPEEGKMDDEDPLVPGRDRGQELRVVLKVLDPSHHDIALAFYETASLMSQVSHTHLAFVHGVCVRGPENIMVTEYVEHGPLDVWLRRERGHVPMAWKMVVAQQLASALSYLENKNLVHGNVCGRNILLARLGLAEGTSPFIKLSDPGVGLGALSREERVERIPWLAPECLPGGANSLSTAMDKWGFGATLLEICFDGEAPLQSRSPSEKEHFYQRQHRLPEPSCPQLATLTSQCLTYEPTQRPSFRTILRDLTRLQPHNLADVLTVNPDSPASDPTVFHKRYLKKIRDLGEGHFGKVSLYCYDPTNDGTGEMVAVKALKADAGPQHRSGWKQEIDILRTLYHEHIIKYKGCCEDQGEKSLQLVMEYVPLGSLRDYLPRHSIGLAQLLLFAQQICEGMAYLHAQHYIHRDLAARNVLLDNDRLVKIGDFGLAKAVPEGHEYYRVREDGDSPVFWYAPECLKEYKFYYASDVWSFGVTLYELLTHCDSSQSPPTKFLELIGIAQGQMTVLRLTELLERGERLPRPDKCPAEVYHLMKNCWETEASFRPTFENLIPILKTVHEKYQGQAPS
Summary of the method: (§1)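 Quenched with 0.5% TFA plus internal-standard peptide; phosphorylated product quantified by RapidFire C4 SPE–ESI-MS, 11-point 1:3 or 1:4 dilutions in duplicate.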

JAK1-JH1JH2 = JAK1-JH1JH2 (Homo sapiens (Human), UniProt P23458); assay: Enzymatic inhibition assay (RapidFire HTMS), JAK1; assay type: biochemical; settings: 12.5 μM ATP, 200 μM substrate; read-out: JAK1-JH2JH1 IC50
Sequence of JAK1-JH1JH2 (P23458 574-1154): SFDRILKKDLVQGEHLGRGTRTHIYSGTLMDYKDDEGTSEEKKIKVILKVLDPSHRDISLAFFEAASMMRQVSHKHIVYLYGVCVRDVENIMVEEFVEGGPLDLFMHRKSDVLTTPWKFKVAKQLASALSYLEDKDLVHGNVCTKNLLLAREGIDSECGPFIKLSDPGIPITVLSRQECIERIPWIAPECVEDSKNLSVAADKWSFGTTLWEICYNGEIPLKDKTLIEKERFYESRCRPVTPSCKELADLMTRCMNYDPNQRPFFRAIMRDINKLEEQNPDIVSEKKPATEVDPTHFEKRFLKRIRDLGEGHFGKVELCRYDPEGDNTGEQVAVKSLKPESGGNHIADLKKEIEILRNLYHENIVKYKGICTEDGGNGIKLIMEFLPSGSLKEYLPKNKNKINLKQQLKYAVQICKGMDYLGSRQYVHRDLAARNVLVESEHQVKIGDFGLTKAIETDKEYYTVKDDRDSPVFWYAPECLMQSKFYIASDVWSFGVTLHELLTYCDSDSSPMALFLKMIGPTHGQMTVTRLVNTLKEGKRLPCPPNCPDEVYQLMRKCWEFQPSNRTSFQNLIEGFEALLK
Summary of the method: as §1

JAK2-JH1JH2 = JAK2-JH1JH2 (Homo sapiens (Human), UniProt O60674); assay: Enzymatic inhibition assay (RapidFire HTMS), JAK2; assay type: biochemical; settings: 30 μM ATP, 40 μM substrate
Sequence of JAK2-JH1JH2 (O60674 532-1132): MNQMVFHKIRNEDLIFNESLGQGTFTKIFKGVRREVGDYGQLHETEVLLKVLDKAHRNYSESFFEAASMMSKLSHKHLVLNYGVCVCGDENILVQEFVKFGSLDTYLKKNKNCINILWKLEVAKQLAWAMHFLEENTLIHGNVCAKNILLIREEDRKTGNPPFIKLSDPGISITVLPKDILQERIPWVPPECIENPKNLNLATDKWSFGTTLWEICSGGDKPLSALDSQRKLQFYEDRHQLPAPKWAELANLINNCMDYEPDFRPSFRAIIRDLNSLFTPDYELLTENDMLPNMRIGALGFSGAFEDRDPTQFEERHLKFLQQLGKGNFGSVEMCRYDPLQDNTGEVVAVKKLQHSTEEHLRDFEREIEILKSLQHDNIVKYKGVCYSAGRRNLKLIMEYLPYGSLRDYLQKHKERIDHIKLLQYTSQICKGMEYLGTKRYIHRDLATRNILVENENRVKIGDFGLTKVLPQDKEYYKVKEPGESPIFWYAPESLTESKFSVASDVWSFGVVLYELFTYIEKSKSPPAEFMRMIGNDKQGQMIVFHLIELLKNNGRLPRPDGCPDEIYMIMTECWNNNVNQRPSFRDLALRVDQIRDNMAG
Summary of the method: as §1

Row | solubility ([1]; fassif, simulated intestinal fluid, fasted state pH 6.5, ambient temperature, read-out: SIF solubility) | solubility ([1]; simulated gastric fluid, ambient temperature, read-out: SGF solubility) | concentration at 4 h ([2]; colon, read-out: Colon Concentration After p.o. Dosing, Mean) | concentration at 0.5 h ([2]; plasma, Time = 0.5 h, read-out: Plasma Concentration After p.o. Dosing, Mean) | concentration at 2 h ([2]; plasma, Time = 2 h, read-out: Plasma Concentration After p.o. Dosing, Mean) | concentration at 4 h ([2]; plasma, read-out: Plasma Concentration After p.o. Dosing, Mean) | Papp A→B at 60 min, 5 μM (P-gp (MDR1); apical to basolateral, without P-gp inhibitor) | Papp B→A at 60 min, 5 μM (P-gp (MDR1); basolateral to apical) | IC50 (JAK3-JH1JH2) | IC50 (Tyk2-JH1JH2) | IC50 (JAK1-JH1JH2) | IC50 (JAK2-JH1JH2) | SMILES
1 | > 400 µM | > 400 µM | 7680 ng/g | 15.1 ng/mL | 6.2 ng/mL | 3.9 ng/mL | < 0.4 ×10⁻⁶ cm/s | 1.8 ×10⁻⁶ cm/s |  |  |  |  | Cn1cc(NC(=O)Cc2nc3cnc4[nH]ccc4c3n2[C@H]2CC[C@H](CC#N)CC2)cn1 [Ex. 38, 2-(1-((1r,4r)-4-(Cyanomethyl)cyclohexyl)-1,6-dihydroimidazo[4,5-d]pyrrolo[2,3-b]pyridin-2-yl)-N-(1-methyl-1H-pyrazol-4-yl)acetamide]
2 |  |  |  |  |  |  |  |  | 109 nM | 7.9 nM | < 4 nM | 3.6 nM | N#CC[C@H]1CC[C@H](n2c(CC(=O)NCC34CC5CC(CC(C5)C3)C4)nc3cnc4[nH]ccc4c32)CC1 [Ex. 199, N-((3R,5R,7R)-Adamantan-1-ylmethyl)-2-(1-((1r,4r)-4-(cyanomethyl)cyclohexyl)-1,6-dihydroimidazo[4,5-d]pyrrolo[2,3-b]pyridin-2-yl)acetamide]
3 |  |  |  |  |  |  |  |  | 13.7 nM | 12.5 nM | < 4 nM | < 3.5 nM | N#CC[C@H]1CC[C@H](n2c(CC(=O)Nc3ccc(C#N)cc3)nc3cnc4[nH]ccc4c32)CC1 [Ex. 200, 2-(1-((1r,4r)-4-(Cyanomethyl)cyclohexyl)-1,6-dihydroimidazo[4,5-d]pyrrolo[2,3-b]pyridin-2-yl)-N-(4-cyanophenyl)acetamide]
4 |  |  |  |  |  |  |  |  | 47.5 nM | 1.1 nM | < 4 nM | 1.9 nM | N#CC[C@H]1CC[C@H](n2c(CC(N)=O)nc3cnc4[nH]ccc4c32)CC1 [Ex. 201, 2-(1-((1r,4r)-4-(Cyanomethyl)cyclohexyl)-1,6-dihydroimidazo[4,5-d]pyrrolo[2,3-b]pyridin-2-yl)acetamide]
5 |  |  |  |  |  |  |  |  | 4680 nM | 41.5 nM | 8.5 nM | 152 nM | N#CC[C@H]1CC[C@H](n2c(Cn3c(-c4ccccc4)noc3=O)nc3cnc4[nH]ccc4c32)CC1 [Ex. 203, 2-((1r,4r)-4-(2-((5-Oxo-3-phenyl-1,2,4-oxadiazol-4(5H)-yl)methyl)imidazo[4,5-d]pyrrolo[2,3-b]pyridin-1(6H)-yl)cyclohexyl)acetonitrile]
6 |  |  |  |  |  |  |  |  | 427 nM | 10.7 nM | 6.7 nM | 13.1 nM | N#CC[C@H]1CC[C@H](n2c(CN/C(=N/O)C3CCCCC3)nc3cnc4[nH]ccc4c32)CC1 [Ex. 204, N-((1-((1r,4r)-4-(Cyanomethyl)cyclohexyl)-1,6-dihydroimidazo[4,5-d]pyrrolo[2,3-b]pyridin-2-yl)methyl)-N′-hydroxycyclohexanecarboximidamide]
7 |  |  |  |  |  |  |  |  | 439 nM | 606 nM | 5.3 nM | 487 nM | N#CCC12CCC(n3c(CC(=O)N4CCCCC4)nc4cnc5[nH]ccc5c43)(CC1)CC2 [Ex. 205, 2-(4-(2-(2-Oxo-2-(piperidin-1-yl)ethyl)imidazo[4,5-d]pyrrolo[2,3-b]pyridin-1(6H)-yl)bicyclo[2.2.2]octan-1-yl)acetonitrile]
8 |  |  |  |  |  |  |  |  | 881 nM | 158 nM | 5.6 nM | 210 nM | N#CCC12CCC(n3c(CC(N)=O)nc4cnc5[nH]ccc5c43)(CC1)CC2 [Ex. 206, 2-(1-(4-(Cyanomethyl)bicyclo[2.2.2]octan-1-yl)-1,6-dihydroimidazo[4,5-d]pyrrolo[2,3-b]pyridin-2-yl)acetamide]
9 |  |  |  |  |  |  |  |  | 375 nM | 524 nM | 6.8 nM | 198 nM | N#CCC12CCC(n3c(CC(=O)Nc4ccccc4)nc4cnc5[nH]ccc5c43)(CC1)CC2 [Ex. 207, 2-(1-(4-(Cyanomethyl)bicyclo[2.2.2]octan-1-yl)-1,6-dihydroimidazo[4,5-d]pyrrolo[2,3-b]pyridin-2-yl)-N-phenylacetamide]
10 |  |  |  |  |  |  |  |  | 536 nM | 714 nM | 7.6 nM | 442 nM | N#CCC12CCC(n3c(CC(=O)NCC4CCCCC4)nc4cnc5[nH]ccc5c43)(CC1)CC2 [Ex. 208, 2-(1-(4-(Cyanomethyl)bicyclo[2.2.2]octan-1-yl)-1,6-dihydroimidazo[4,5-d]pyrrolo[2,3-b]pyridin-2-yl)-N-(cyclohexylmethyl)acetamide]
11 |  |  |  |  |  |  |  |  | 604 nM | 651 nM | 18.9 nM | 520 nM | CNC(=O)Cc1nc2cnc3[nH]ccc3c2n1C12CCC(CC#N)(CC1)CC2 [Ex. 209, 2-(1-(4-(Cyanomethyl)bicyclo[2.2.2]octan-1-yl)-1,6-dihydroimidazo[4,5-d]pyrrolo[2,3-b]pyridin-2-yl)-N-methylacetamide]

Row | SMILES | solubility ([1]; fassif, simulated intestinal fluid, fasted state pH 6.5, ambient temperature, read-out: SIF solubility) | solubility ([1]; simulated gastric fluid, ambient temperature, read-out: SGF solubility) | concentration at 4 h ([2]; colon, read-out: Colon Concentration After p.o. Dosing, Mean) | concentration at 0.5 h ([2]; plasma, Time = 0.5 h, read-out: Plasma Concentration After p.o. Dosing, Mean) | concentration at 2 h ([2]; plasma, Time = 2 h, read-out: Plasma Concentration After p.o. Dosing, Mean) | concentration at 4 h ([2]; plasma, read-out: Plasma Concentration After p.o. Dosing, Mean) | Papp A→B at 60 min, 5 μM (P-gp (MDR1); apical to basolateral, without P-gp inhibitor) | Papp B→A at 60 min, 5 μM (P-gp (MDR1); basolateral to apical) | IC50 (JAK3-JH1JH2) | IC50 (Tyk2-JH1JH2) | IC50 (JAK1-JH1JH2) | IC50 (JAK2-JH1JH2)
12 | CC(C)(C)OCc1nc2cnc3[nH]ccc3c2n1[C@H]1CC[C@H](CC#N)CC1 [Ex. 202, 2-((1r,4r)-4-(2-(tert-Butoxymethyl)imidazo[4,5-d]pyrrolo[2,3-b]pyridin-1(6H)-yl)cyclohexyl)acetonitrile] |  |  |  |  |  |  |  |  | 1040 nM | 50.9 nM | 5 nM | 50.9 nM
